Earlier results, collected in patent US20080241073A1, “Polymeric Micelle Type Mri Imaging Agent” (Kanagawa Academy of Science and Technology, priority 2004, published 2008).

Settings: Corot et al., Non-patent Literature 2

O=C([O-])CN1CCN(CC(=O)[O-])CCN(CC(=O)O)CCN(CC(=O)[O-])CC1.[Gd+3] [DOTA-Gd]
T1 relaxivity: 3.4
